# Patent US10294229B2, “Heteroaryl substituted aminopyridine compounds” (BRISTOL-MYERS SQUIBB COMPANY, priority 2015, dated 2019)
# What was measured:
# [1] = target: IRAK4 (Homo sapiens (Human), UniProt Q9NWZ3); experiment: IRAK4 Inhibition Assay; type: biochemical; conditions: ATP 500 μM; IRAK4 0.6 nM
# Method in brief: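 Enzyme 0.6 nM, ATP 500 μM, FL-peptide 1.5 μM, DMSO 1.6%; HEPES pH 7.2/MgCl2/Brij 35/DTT buffer. RT, 60 min, EDTA stop. Mobility-shift product/substrate ratio; % inhib vs no-enzyme and vehicle controls.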
# [2] = Caco-2 Permeability Assay; type: in vitro ADME; conditions: human, Caco-2, test compound 3 μM
# Method in brief: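 Bidirectional permeability measured over 2 h at 37° C, compound dosed at 3 μM in the donor compartment (apical for absorptive, basolateral for secretive) with plain buffer as receiver.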
# [3] = system: Human whole blood stimulated with a TLR2 agonist (lipoteichoic acid), IL-6 levels; experiment: IRAK4 Whole Blood Assay; type: cell-based; conditions: lipoteichoic acid 10 μg/mL
# Method in brief: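 ACD-A-anticoagulated human whole blood was preincubated with compounds for 60 min at 37 °C under 5% CO2. It was then stimulated with 10 μg/mL lipoteichoic acid (final) in RPMI for 5 h. IL-6 in plasma supernatants was measured by flow cytometry bead assay.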
# IRAK4, sequence (Q9NWZ3 whole entry, species assumed): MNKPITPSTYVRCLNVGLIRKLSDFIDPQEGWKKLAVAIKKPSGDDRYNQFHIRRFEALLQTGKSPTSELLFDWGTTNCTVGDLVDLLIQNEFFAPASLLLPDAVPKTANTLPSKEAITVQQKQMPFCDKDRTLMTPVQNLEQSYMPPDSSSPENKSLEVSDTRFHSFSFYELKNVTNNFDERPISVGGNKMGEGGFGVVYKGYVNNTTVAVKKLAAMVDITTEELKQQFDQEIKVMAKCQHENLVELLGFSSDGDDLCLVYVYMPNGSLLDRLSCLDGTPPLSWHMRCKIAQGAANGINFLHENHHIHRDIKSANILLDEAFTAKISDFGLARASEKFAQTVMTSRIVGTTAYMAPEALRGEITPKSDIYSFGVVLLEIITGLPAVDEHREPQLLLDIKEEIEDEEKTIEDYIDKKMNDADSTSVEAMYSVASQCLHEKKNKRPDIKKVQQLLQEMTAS
structure (smiles),measurement,setting,value
"COC(=O)N[C@H]1CC[C@H](n2cc(-c3cnc(-n4ncc5cc(C#N)cnc54)cc3NC(C)C)nn2)CC1 [Example 393, methyl ((1r,4r)-4-(4-(6-(5-cyano-1H-pyrazolo[3,4-b]pyridin-1-yl)-4-(isopropylamino)pyridin-3-yl)-1H-1,2,3-triazol-1-yl)cyclohexyl)carbamate]",IC50,[1],2 nM
same,"Papp at 2 h, 3 µM",[2],10.6 ×10⁻⁶ cm/s
same,EC50,[3]; Homo sapiens,330 nM
"CC(O)Cc1cn(-c2cnc(-n3ncc4cc(C#N)cnc43)cc2NCC(C)(C)O)nn1 (stereo not drawn) [Example 264, 1-(4-((2-hydroxy-2-methylpropyl)amino)-5-(4-(2-hydroxypropyl)-1H-1,2,3-triazol-1-yl)pyridin-2-yl)-1H-pyrazolo[3,4-b]pyridine-5-carbonitrile]",IC50,[1],8 nM
same,"Papp at 2 h, 3 µM",[2],22.5 ×10⁻⁶ cm/s
same,EC50,[3]; Homo sapiens,330 nM
"CC(C)Nc1cc(-n2ncc3cc(C#N)cnc32)ncc1-c1cc([C@@H]2COCCN2)on1 [Example 428, (S)-1-(4-(isopropylamino)-5-(5-(morpholin-3-yl)isoxazol-3-yl)pyridin-2-yl)-1H-pyrazolo[3,4-b]pyridine-5-carbonitrile]",IC50,[1],4 nM
same,"Papp at 2 h, 3 µM",[2],26.3 ×10⁻⁶ cm/s
same,EC50,[3]; Homo sapiens,460 nM
"CC(C)Nc1cc(-n2ncc3cc(C#N)cnc32)ncc1-c1cc(C2CCNCC2)no1 [Example 403, 1-(4-(isopropylamino)-5-(3-(piperidin-4-yl)isoxazol-5-yl)pyridin-2-yl)-1H-pyrazolo[3,4-b]pyridine-5-carbonitrile]",IC50,[1],4 nM
same,"Papp at 2 h, 3 µM",[2],< 1.5 ×10⁻⁶ cm/s
same,EC50,[3]; Homo sapiens,230 nM
"CC(C)Nc1cc(-n2ncc3cc(C#N)cnc32)ncc1-c1cn([C@@H]2CCN(C(=O)C(C)(C)C)C[C@H]2O)nn1 (single isomer, unassigned) [Example 206]",IC50,[1],3 nM
same,"Papp at 2 h, 3 µM",[2],2 ×10⁻⁶ cm/s
same,EC50,[3]; Homo sapiens,1900 nM
"CC(C)Nc1cc(-n2ncc3cc(C#N)cnc32)ncc1-n1cc(C2CCN(CC(F)F)CC2)nn1 [Example 336, 1-(5-(4-(1-(2,2-difluoroethyl)piperidin-4-yl)-1H-1,2,3-triazol-1-yl)-4-(isopropylamino)pyridin-2-yl)-1H-pyrazolo[3,4-b]pyridine-5-carbonitrile]",IC50,[1],7 nM
same,"Papp at 2 h, 3 µM",[2],25 ×10⁻⁶ cm/s
same,EC50,[3]; Homo sapiens,220 nM
"CCCc1cn(-c2cnc(-n3ncc4cc(C#N)cnc43)cc2Nc2cnn(CC(F)F)c2)nn1 [Example 269, 1-(4-((1-(2,2-difluoroethyl)-1H-pyrazol-4-yl)amino)-5-(4-propyl-1H-1,2,3-triazol-1-yl)pyridin-2-yl)-1H-pyrazolo[3,4-b]pyridine-5-carbonitrile]",IC50,[1],4 nM
same,"Papp at 2 h, 3 µM",[2],3.8 ×10⁻⁶ cm/s
same,EC50,[3]; Homo sapiens,390 nM
"CC(F)Cc1cn(-c2cnc(-n3ncc4cc(C#N)cnc43)cc2NC(C)C)nn1 (single isomer, unassigned) [Example 289, 1-(5-(4-(2-fluoropropyl)-1H-1,2,3-triazol-1-yl)-4-(isopropylamino)pyridin-2-yl)-1H-pyrazolo [3,4-b]pyridine-5-carbonitrile]",IC50,[1],6 nM
same,"Papp at 2 h, 3 µM",[2],47.4 ×10⁻⁶ cm/s
same,EC50,[3]; Homo sapiens,200 nM
"CCCn1cc(-c2cnc(-n3ncc4cc(C#N)c(N)nc43)cc2NC2CC2)nn1 [Example 35, 6-amino-1-(4-(cyclopropylamino)-5-(1-propyl-1H-1,2,3-triazol-4-yl)pyridin-2-yl)-1H-pyrazolo [3,4-b]pyridine-5-carbonitrile]",IC50,[1],3 nM
same,"Papp at 2 h, 3 µM",[2],23.7 ×10⁻⁶ cm/s
same,EC50,[3]; Homo sapiens,460 nM
"CCOC(=O)N[C@H]1CC[C@H](n2cc(-c3cnc(-n4ncc5cc(C#N)cnc54)cc3NC(C)C)nn2)CC1 [Example 395, ethyl ((1r,4r)-4-(4-(6-(5-cyano-1H-pyrazolo[3,4-b]pyridin-1-yl)-4-(isopropylamino)pyridin-3-yl)-1H-1,2,3-triazol-1-yl)cyclohexyl)carbamate]",IC50,[1],1 nM
same,"Papp at 2 h, 3 µM",[2],9.4 ×10⁻⁶ cm/s
same,EC50,[3]; Homo sapiens,290 nM
"N#Cc1cnc2c(cnn2-c2cc(NC3CC3)c(-c3cn(CCN4CCOCC4)nn3)cn2)c1 [Example 13, 1-(4-(cyclopropylamino)-5-(1-(2-morpholinoethyl)-1H-1,2,3-triazol-4-yl)pyridin-2-yl)-1H-pyrazolo[3,4-b]pyridine-5-carbonitrile]",IC50,[1],3 nM
same,"Papp at 2 h, 3 µM",[2],22.9 ×10⁻⁶ cm/s
same,EC50,[3]; Homo sapiens,270 nM
"CC(C)Nc1cc(-n2ncc3cc(C#N)cnc32)ncc1-c1cc([C@@H]2COC(C)(C)O2)no1 [Example 420, (R)-1-(5-(3-(2,2-dimethyl-1,3-dioxolan-4-yl)isoxazol-5-yl)-4-(isopropylamino)pyridin-2-yl)-1H-pyrazolo[3,4-b]pyridine-5-carbonitrile]",IC50,[1],6 nM
same,"Papp at 2 h, 3 µM",[2],43.8 ×10⁻⁶ cm/s
same,EC50,[3]; Homo sapiens,350 nM
"CC(C)(F)CCc1cn(-c2cnc(-n3ncc4cc(C#N)cnc43)cc2N[C@@H]2CCOC2)nn1 [Example 373, (R)-1-(5-(4-(3-fluoro-3-methylbutyl)-1H-1,2,3-triazol-1-yl)-4-((tetrahydrofuran-3-yl)amino)pyridin-2-yl)-1H-pyrazolo[3,4-b]pyridine-5-carbonitrile]",IC50,[1],4 nM
same,"Papp at 2 h, 3 µM",[2],27.7 ×10⁻⁶ cm/s
same,EC50,[3]; Homo sapiens,300 nM
"CC(C)Nc1cc(-n2ncc3cc(C#N)cnc32)ncc1-c1cn([C@@H](C)[C@H](C)O)nn1 (single isomer, unassigned) [Example 90]",IC50,[1],4 nM
same,"Papp at 2 h, 3 µM",[2],10.1 ×10⁻⁶ cm/s
same,EC50,[3],170 nM
"CC(C)Nc1cc(-n2ncc3cc(C#N)cnc32)ncc1-c1cn(CC2CCO2)nn1 (stereo not drawn) [Example 123, 1-(4-(isopropylamino)-5-(1-(oxetan-2-ylmethyl)-1H-1,2,3-triazol-4-yl)pyridin-2-yl)-1H-pyrazolo[3,4-b]pyridine-5-carbonitrile]",IC50,[1],5 nM
same,"Papp at 2 h, 3 µM",[2],24.4 ×10⁻⁶ cm/s
same,EC50,[3]; Homo sapiens,240 nM
"CCCn1cc(-c2cnc(-n3cnc4cc(C#N)cnc43)cc2N[C@@H](C)CO)nn1 [Example 53, (S)-3-(4-((1-hydroxypropan-2-yl)amino)-5-(1-propyl-1H-1,2,3-triazol-4-yl)pyridin-2-yl)-3H-imidazo [4,5-b]pyridine-6-carbonitrile]",IC50,[1],2 nM
same,"Papp at 2 h, 3 µM",[2],26.7 ×10⁻⁶ cm/s
same,EC50,[3]; Homo sapiens,100 nM
"CC(C)Nc1cc(-n2ncc3cc(C#N)cnc32)ncc1-c1cn(C2CCOC2)nn1 (stereo not drawn) [Example 214, 1-(4-(isopropylamino)-5-(1-(tetrahydrofuran-3-yl)-1H-1,2,3-triazol-4-yl)pyridin-2-yl)-1H-pyrazolo[3,4-b]pyridine-5-carbonitrile]",IC50,[1],7 nM
same,"Papp at 2 h, 3 µM",[2],13.6 ×10⁻⁶ cm/s
same,EC50,[3]; Homo sapiens,920 nM
"CC(C)Nc1cc(-n2ncc3cc(C#N)c(N)nc32)ncc1-c1cn(CC(C)(C)O)nn1 [Example 97, 6-amino-1-(5-(1-(2-hydroxy-2-methylpropyl)-1H-1,2,3-triazol-4-yl)-4-(isopropylamino)pyridin-2-yl)-1H-pyrazolo[3,4-b]pyridine-5-carbonitrile]",IC50,[1],8 nM
same,"Papp at 2 h, 3 µM",[2],< 1.5 ×10⁻⁶ cm/s
same,EC50,[3]; Homo sapiens,1440 nM
"CC(C)(O)CCC1CC(c2cnc(-n3ncc4cc(C#N)cnc43)cc2NCC(F)F)=NO1 (stereo not drawn) [Example 443, 1-(4-((2,2-difluoroethyl)amino)-5-(5-(3-hydroxy-3-methylbutyl)-4,5-dihydroisoxazol-3-yl)pyridin-2-yl)-1H-pyrazolo[3,4-b]pyridine-5-carbonitrile]",IC50,[1],2 nM
same,"Papp at 2 h, 3 µM",[2],14.1 ×10⁻⁶ cm/s
same,EC50,[3],390 nM
"CC(C)Nc1cc(-n2ncc3cc(C#N)cnc32)ncc1-n1cc(C2CCNCC2)nn1 [Example 334, 1-(4-(isopropylamino)-5-(4-(piperidin-4-yl)-1H-1,2,3-triazol-1-yl)pyridin-2-yl)-1H-pyrazolo[3,4-b]pyridine-5-carbonitrile]",IC50,[1],2 nM
same,"Papp at 2 h, 3 µM",[2],< 1.5 ×10⁻⁶ cm/s
same,EC50,[3]; Homo sapiens,70 nM
"CC(=O)N1CCC(n2cc(-c3cnc(-n4ncc5cc(C#N)cnc54)cc3NC(C)C)nn2)C1 (stereo not drawn) [Example 157, 1-(5-(1-(1-acetylpyrrolidin-3-yl)-1H-1,2,3-triazol-4-yl)-4-(isopropylamino)pyridin-2-yl)-1H-pyrazolo[3,4-b]pyridine-5-carbonitrile]",IC50,[1],6 nM
same,"Papp at 2 h, 3 µM",[2],< 1.5 ×10⁻⁶ cm/s
same,EC50,[3]; Homo sapiens,280 nM
"CC(C)Nc1cc(-n2ncc3cc(C#N)cnc32)ncc1-c1cc(C2CCCCN2)no1 [Example 412, (S)-1-(4-(isopropylamino)-5-(3-(piperidin-2-yl)isoxazol-5-yl)pyridin-2-yl)-1H-pyrazolo[3,4-b]pyridine-5-carbonitrile]",IC50,[1],4 nM
same,"Papp at 2 h, 3 µM",[2],13.9 ×10⁻⁶ cm/s
same,EC50,[3]; Homo sapiens,400 nM
"CCNc1cc(-n2ncc3cc(C#N)cnc32)ncc1-n1cc(CCC(C)(C)O)nn1 [Example 369, 1-(4-(ethylamino)-5-(4-(3-hydroxy-3-methylbutyl)-1H-1,2,3-triazol-1-yl)pyridin-2-yl)-1H-pyrazolo[3,4-b]pyridine-5-carbonitrile]",IC50,[1],7 nM
same,"Papp at 2 h, 3 µM",[2],6.7 ×10⁻⁶ cm/s
same,EC50,[3]; Homo sapiens,270 nM
"COC(=O)N1CC(c2cc(-c3cnc(-n4ncc5cc(C#N)cnc54)cc3NC(C)C)on2)C1 [Example 401, methyl 3-(5-(6-(5-cyano-1H-pyrazolo[3,4-b]pyridin-1-yl)-4-(isopropylamino)pyridin-3-yl)isoxazol-3-yl)azetidine-1-carboxylate]",IC50,[1],4 nM
same,"Papp at 2 h, 3 µM",[2],28 ×10⁻⁶ cm/s
same,EC50,[3]; Homo sapiens,380 nM
"CCC(C)(O)Cc1cn(-c2cnc(-n3ncc4cc(C#N)cnc43)cc2NC(C)C)nn1 (stereo not drawn) [Example 318, 1-(5-(4-(2-hydroxy-2-methylbutyl)-1H-1,2,3-triazol-1-yl)-4-(isopropylamino)pyridin-2-yl)-1H-pyrazolo[3,4-b]pyridine-5-carbonitrile]",IC50,[1],25 nM
same,"Papp at 2 h, 3 µM",[2],10.8 ×10⁻⁶ cm/s
same,EC50,[3]; Homo sapiens,790 nM
